Results from US20030129134A1, “Method of monitoring neuroprotective treatment” (Pfizer Inc., priority 2001, published 2003).

Tested on: S-100b
Assay: Serum S-100b levels in patients with severe contusive-type head trauma treated by constant infusion
Format: in vivo, human
Details: constant infusion for 72 hours, serum samples out to 120 hours post-infusion, luminometric immunoassay
Text: Levels of S-100b can be measured in a biological sample of a patient's blood or CSF using a commercially available immunoradiometric assay or luminometric immunoassay kit such as those available from Byk-Sangtec Diagnostica GmbH & Co. (Dietzenbach, Germany), which are based on a two-site immunoluminometric sandwich assay using the commercially available LIAISON® Sangtec® S-100 assay system. In this assay system, paramagnetic particles are coated with two anti-S100b monoclonal antibodies directed to different epitopes, and a secondary anti-S100b monoclonal antibody labeled with an isoluminol derivative is provided as detection antibody. The paramagnetic particles, assay buffer, and biological sample are first incubated and unbound material is removed by a wash cycle. […] Subsequently, starter reagents that activate the chemoluminscent reaction are added and the S-100b concentration is determined via the chemiluminescence reaction induced by the previously added reagents. The light signal is measured in relative light units (RLUs) and is directly proportional to the amount of S-100b protein in the sample. […]
S-100b levels were measured in the serum of patients suffering from severe contusive-type head trauma. […] S-100b levels were determined using a commercially available luminometric immunoassay kit from Byk-Sangtec Diagnostica GmbH & Co. (Dietzenbach, Germany).

For `C[C@@H]([C@@H](O)c1ccc(O)cc1)N1CCC(O)(c2ccccc2)CC1` [CP-101,606, (1S,2S)-1-(4-hydroxyphenyl)-2-(4-hydroxy-4-phenylpiperidin-1-yl)-1-propanol], the “S-100b levels in serum compared to the placebo group” value was “significantly reduced”.
